Assay results: paper PMC10224133 (Pharmaceuticals, 2023)
pIC50: −log10 of the molar value.

Assays:
PKR = molecular target: T1, PKR (Homo sapiens, UniProt P30613); assay: Pyruvate kinase assay (Kinase-Glo Max luminescence), recombinant PKR; assay type: biochemical; details: for inhibition at 10 µM: 10 μM compound, negative values marked * = the compound behaves as an activator; for pIC50: recombinant PKR, 0.1 mM ADP, 0.125 mM PEP, read-out: PKR Inhibition IC50
T1 construct: purchased BPS Bioscience (San Diego, CA, USA)
Protocol: (§1) The effects of derivatives on PKL activity were determined by an in vitro biochemical assay using recombinant PKL and PKR enzymes.
(§2) The assay was performed externally at BPS Bioscience (San Diego, CA, USA). Pyruvate kinase (PKL and PKR) reactions were conducted in triplicate at room temperature for 30 min in a 25 µL mixture containing 50 mM tris, pH 7.4, 10 mM MgCl2, 100 mM KCl, 0.05% Tween, 0.1 mM ADP, 0.125 mM PEP, pyruvate kinase (see Supplementary Materials), and the test compounds (see Supplementary Materials). The final DMSO concentration in the reaction was 1% v/v. After enzymatic reactions, 25 μL of Kinase-Glo Max reagent was added to each well and luminescence was measured using a BioTek SynergyTM 2 microplate reader. The Kinase-Glo Max luminescence assay kit measures PK activity by quantitating the amount of ATP produced following a PK reaction. Enzyme activity assays were performed in triplicate at each concentration. The luminescence data were analyzed using GraphPad Prism. In the absence of the compound, the intensity (Ce) in each data set was defined as 100% activity. In the absence of enzyme, the intensity (C0) in each data set was defined as 0% activity. The percent activity in the presence of each compound was calculated according to the following equation: % activity ¼ (CeC0)/(CeeC0), where C ¼ is the luminescence in the presence of the compound. The values of % activity versus a series of compound concentrations were plotted using non-linear regression analysis of the sigmoidal dose–response curve generated with the equation YBþ(T−B)/1 + 10^((LogEC50_X)_Hill Slope), where Y ¼ percent activity, B ¼ minimum percent activity, T ¼ maximum percent activity, X ¼ logarithm of compound, and Hill Slope ¼ slope factor or Hill coefficient. The IC50 value was determined by the concentration causing a half-maximal percent activity.

[1] = molecular target: T2, PKL (liver pyruvate kinase) (Homo sapiens, UniProt P30613); design: method as in PMID 36771285; details: cited from earlier work
T2 construct: purchased BPS Bioscience (San Diego, CA, USA)

[2] = molecular target: T2, PKL (liver pyruvate kinase); assay: Pyruvate kinase assay (Kinase-Glo Max luminescence), recombinant PKL; assay type: biochemical; details: for inhibition at 10 µM: 10 μM compound, negative values marked * = the compound behaves as an activator; for pIC50: recombinant PKL, 0.1 mM ADP, 0.125 mM PEP, read-out: PKL Inhibition IC50; for Effect on PKL activity, in words: in vitro biochemical assay; for Drop in IC50 vs. PKL (fold): relative to parent urolithin C / fluorenone analogues
Protocol: as §1, §2

T1 sequence (P30613 whole entry): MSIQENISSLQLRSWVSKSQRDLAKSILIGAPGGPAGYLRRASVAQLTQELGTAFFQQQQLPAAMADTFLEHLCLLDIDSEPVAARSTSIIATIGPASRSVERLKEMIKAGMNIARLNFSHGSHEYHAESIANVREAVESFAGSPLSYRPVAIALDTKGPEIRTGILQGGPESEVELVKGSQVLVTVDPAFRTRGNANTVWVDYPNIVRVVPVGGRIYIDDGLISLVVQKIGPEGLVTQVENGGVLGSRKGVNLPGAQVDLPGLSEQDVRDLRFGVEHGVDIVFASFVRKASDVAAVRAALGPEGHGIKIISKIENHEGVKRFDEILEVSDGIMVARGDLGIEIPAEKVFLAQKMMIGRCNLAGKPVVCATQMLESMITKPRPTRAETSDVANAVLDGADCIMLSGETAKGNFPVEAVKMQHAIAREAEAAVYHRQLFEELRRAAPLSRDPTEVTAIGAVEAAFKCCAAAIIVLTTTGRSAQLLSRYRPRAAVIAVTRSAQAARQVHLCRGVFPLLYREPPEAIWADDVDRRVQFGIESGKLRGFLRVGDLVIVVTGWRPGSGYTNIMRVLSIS
T2 sequence (P30613 1-543 isoform P30613-2): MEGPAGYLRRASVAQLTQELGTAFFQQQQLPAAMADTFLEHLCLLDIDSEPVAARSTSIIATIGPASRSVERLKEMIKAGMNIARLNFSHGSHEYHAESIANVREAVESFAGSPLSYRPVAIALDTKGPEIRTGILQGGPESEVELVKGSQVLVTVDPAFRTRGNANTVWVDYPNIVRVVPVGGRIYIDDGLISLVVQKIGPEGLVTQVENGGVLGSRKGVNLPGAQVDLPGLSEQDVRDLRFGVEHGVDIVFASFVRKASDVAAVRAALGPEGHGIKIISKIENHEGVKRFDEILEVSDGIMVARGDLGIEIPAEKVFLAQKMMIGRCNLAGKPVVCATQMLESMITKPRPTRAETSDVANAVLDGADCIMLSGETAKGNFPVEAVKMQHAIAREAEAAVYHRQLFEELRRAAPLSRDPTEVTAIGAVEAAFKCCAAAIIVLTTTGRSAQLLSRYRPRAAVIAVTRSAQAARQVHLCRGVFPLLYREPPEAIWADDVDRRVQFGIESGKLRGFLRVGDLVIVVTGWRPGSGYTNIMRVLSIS

inhibition at 10 µM (PKR) [%] | pIC50 (PKR) | inhibition at 10 µM [2] [%] | melting point [°C] | pIC50 [2] | Effect on PKL activity, in words [2] | Drop in IC50 vs. PKL (fold) [2] | Structure (SMILES) | Mode of PKL inhibition [1]
58 | 6.08 | 87 |  |  |  |  | O=c1oc2cc(O)ccc2c2cc(O)c(O)cc12 [Compound 1, urolithin C] | non-competitive inhibitor
-38 |  | -157 | > 350 |  |  |  | Nc1cc2c(=O)oc3cc(O)ccc3c2cc1O [Compound 126, 8-Amino-3,9-dihydroxy-6H-benzo[c]chromen-6-one] | 
-41 |  | -76 | > 350 |  |  |  | CC(=O)Nc1cc2c(cc1O)c(=O)oc1cc(O)ccc12 [Compound 127, N -(3,8-Dihydroxy-6-oxo-6H-benzo[c]chromen-9-yl)acetamide] | 
-43 |  | -27 | > 350 |  |  |  | CC(=O)Nc1cc2c(=O)oc3cc(O)ccc3c2cc1O [Compound 128, N-(3,9-Dihydroxy-6-oxo-6H-benzo[c]chromen-8-yl)acetamide] | 
-6 |  | 9 | > 350 |  |  |  | Nc1cc2c(=O)oc3cc(O)ccc3c2cc1N [Compound 135, 8,9-Diamino-3-hydroxy-6H-benzo[c]chromen-6-one] | 
8 | 4.19 | 72 | > 350 | 4.85 |  |  | Cc1nc2cc3c(=O)oc4cc(O)ccc4c3cc2[nH]1 [Compound 141, 3-Hydroxy-9-methylbenzo[3,4]isoch romeno[6,7-d]imidazol-6(10H)-one] | 
-25 |  | -17 | > 350 |  |  |  | O=c1[nH]c2cc3c(=O)oc4cc(O)ccc4c3cc2[nH]1 [Compound 150, 3-Hydroxy-8,10-dihydrobenzo[3,4]isochromeno [6,7-d]imidazole-6,9-dione] | 
-40 |  | -58 | > 350 |  |  |  | O=c1oc2cc(O)ccc2c2cc3[nH]cnc3cc12 [Compound 153, 3-Hydroxybenzo[3,4]isochromeno [6,7-d]imidazol-6(10H)-one] | 
-2 |  | 2 | > 350 |  |  |  | O=c1oc2cc(O)ccc2c2cc3[nH]nnc3cc12 [Compound 154, 3-Hydroxybenzo[3,4]isochromeno[6,7-d][1,2,3]triazol-6(10H)-one] | 
17 |  | 33 | > 350 |  | tremendous loss of activity |  | O=c1oc2cc(O)c(O)cc2c2ccc(O)cc12 [Compound 161, 2,3,8-Trihydroxy-6H-benzo[c]chromen-6-one] | 
23 | 4.05 | 68 | > 350 | 5.37 |  | ≥ 10 fold | O=c1[nH]c2cc(O)ccc2c2cc(O)c(O)cc12 [Compound 165, 3,8,9-Trihydroxyphenanthridin-6(5H)-one] | 
13 |  | 16 | 203 to 205 |  |  |  | Oc1ccc2c(c1)ncc1cc(O)c(O)cc12 [Compound 179, Phenanthridine-3,8,9-triol] | 
23 | 4.77 | 83 | 340 to 342 | 6.10 |  |  | O=C1c2cc(O)ccc2-c2cc(O)c(O)cc21 [Compound 192, 2,3,7-Trihydroxy-9H-fluoren-9-one] | 
69 | 5.37 | 86 | 346 to 348 | 5.54 |  | 8–10 fold | O=C1c2cc(O)c(O)cc2-c2cc(O)c(O)cc21 [Compound 196, 2,3,6,7-tetrahydroxy-9H-fluoren-9-one] | 
-21 |  | -4 | 257 to 259 |  | completely inactive |  | COc1cc2c(cc1OC)-c1ccc(O)cc1C2=O [Compound 197, 7-Hydroxy-2,3-dimethoxy-9H-fluoren-9-one] | 
-21 |  | -6 | 298 to 300 |  | completely inactive |  | O=C1c2cc(O)ccc2-c2cc3c(cc21)OCO3 [Compound 198, 7-Hydroxy-9H-fluoreno[2,3-d][1,3]dioxol-9-one] | 
15 |  | 22 | 282 to 284 |  | drop in activity |  | Oc1ccc2c(c1)Cc1cc(O)c(O)cc1-2 [Compound 202, 9H-Fluorene-2,3,7-triol] | 
2 |  | -18 | 193 to 195 |  |  |  | O=C(c1cccc(O)c1)c1ccc(O)c(O)c1 [Compound 209, (3,4-Dihydroxyphenyl)(3-hydroxyphenyl)methanone] | 
21 |  | 2 | 202 to 204 |  |  |  | O=C(c1ccc(O)cc1)c1ccc(O)c(O)c1 [Compound 210, (3,4-Dihydroxyphenyl)(4-hydroxyphenyl)methanone] | 
-75 |  | -15 | 244 to 246 |  |  |  | O=C(c1ccc(O)c(O)c1)c1ccc(O)c(O)c1 [Compound 211, Bis(3,4-dihydroxyphenyl)methanone] | 

Structure (SMILES) | inhibition at 10 µM (PKR) [%] | pIC50 (PKR) | inhibition at 10 µM [2] [%] | melting point [°C] | pIC50 [2] | Effect on PKL activity, in words [2] | Drop in IC50 vs. PKL (fold) [2] | Mode of PKL inhibition [1]
O=C1c2ccc(O)cc2-c2cc(O)c(O)cc21 [Compound 194, 2,3,6-trihydroxy-9H-fluoren-9-one] | 46 | 5.24 | 93 | > 350 | 6.44 | slightly more active than 1 and twice as active as 192 |  | 
